One substance from US12570709B2, “Self-assembling peptide amphiphiles displaying a transforming growth factor beta 1 (TGF-ß1) mimetic epitope” (Northwestern University, priority 2021, dated 2026) can be followed below.

Series [1] in a line: Transverse-relaxation (T2) NMR spectroscopy of PA assemblies. The settings on record: TGF PA co-assembled at 10 mol % with diluent backbone PA. The format is physicochemical. The method, then:
NMR spectra were acquired at 600 MHz on a Brucker Neo system with QCI-F cryoprobe. NMR spectra for PAs were recorded at 25° C. using TFA-d, H2O/D2O in 9/1 ratio (D2O contains 0.05 wt. % 3-(trimethylsilyl) propionic-2,2,3,3-d4 acid, sodium salt) as solvents. Chemical shifts are reported in part per million (ppm). The […] was 15 μs and typical spectra required 32 scans.
The spin-spin relaxation rates were measured using the Carr-Purcell-Gill-Meiboom pulse sequence with a delay time of 0.2 ms in a variable loop. The peak intensity data was fit to and exponential in the form:
[formula] where τ is the length of the delay time, R2 is the spin-spin relaxation rate and b are the baseline.^2 Cell Culture

A short description of series [2]: Cryo-TEM of PA nanostructures. The series is classed as physicochemical. The note with it: 10 mol % co-assembly with diluent backbone PA. The method, then:
300-mesh copper grids with lacey carbon film (Electron Microscopy Sciences) were glow discharged for 30 seconds in a PELCO easiGlow system (Ted Pella, Inc.). PA solutions were prepared as previously described and then diluted to 1 mM in water before imaging. 7 μL of PA solution was placed onto grids, blotted, and plunge-frozen in liquid ethane using an FEI Vitrobot Mark IV (FEI), maintained at 95-100% humidity. While submerged in liquid nitrogen, vitrified samples were transferred to a Gatan 626 cryo-holder (Gatan) and imaged on a JEOL 1230 TEM operating at 100 kV accelerating voltage. Liquid nitrogen temperatures were maintained during imaging, and micrographs were captured with a Gatan 832 CCD camera.

Series [3] in a line: Fluorescence anisotropy of TAMRA-labeled epitopes. The format is physicochemical. The note with it: 10 mol % co-assembly. The method, then:
PA co-assemblies of diluent PA, TGF-β1 mimetic PA, and fluorescent dye-conjugated TGF-β1 mimetic PA were prepared in a 90:8:2 mol % ratio. The dye-conjugated PA was synthesized as previously described with a tetramethylrhodamine (TAMRA) molecule conjugated to the N-terminal amine of the TGF-β1 mimetic epitope. The PA solutions were prepared as previously described and diluted immediately before measurement to 100 μM PA, 100 μM CaCl2), and 30 mM NaCl. Fluorescence measurements were performed on an ISS PC1 photon counting steady-state fluorescence spectrometer equipped with a 300 W xenon arc lamp with power set to 18 A. Excitation slit widths of 1 mm (8 nm bandwidth) and emission slit widths of 0.5 mm (4 nm bandwidth) were used. Fluorescence anisotropy measurements were performed with λex=554 nm and λem=580 nm according to the equation:
[formula] Where F∥ is the intensity parallel to the excitation plane, F⊥ is the intensity perpendicular to the excitation plane, and g is the g-factor, which accounts for differences in emissions between the perpendicular and parallel gratings.^1 Measurements were taken in triplicate and averaged for final data analysis. Transverse-Relaxation Nuclear Magnetic Resonance Spectroscopy
Background: In fluorescence polarisation assays a small probe gives low polarisation when free and higher when bound to something large.

In series [4] the test system is Smad2 phosphorylation (intracellular TGF-β1 signaling) in human chondrocytes. Briefly: Western blot of phosphorylated Smad2 after 4 h treatment. The series is classed as cell-based. The note with it: for p-Smad2 activation: 50 μM, 4 h. The method, then: (§1) For western blot of 4 h PA treatments, cells were seeded in 6-well plates at a density of 600,000 cells/well and cultured for 24 h. […] Cells were then treated with PA in solution for 4 h in vitro. For western blot of 3-day PA treatments, cells were seeded in 6-well plates at a density of 230,000 cells/well and cultured for 24 h. Cells were then treated with PA in solution for 3 days in vitro.
(§2) Protein was extracted from cells using Halt Protease and Phosphatase Inhibitor Cocktail (Thermo Scientific) and a BCA assay (Thermo Scientific) was performed to determine protein content of each sample. Cell protein was loaded into and separated using a 4-20% SDS-PAGE gel (Bio-Rad). It was then electrotransferred from the gel to a nitrocellulose membrane (Bio-Rad). The membranes were blocked with 10% milk solution (Bio-Rad) for 30 minutes followed by an overnight incubation with primary antibodies at 4° C. The following primary antibodies were used: rabbit anti-pSmad2 (1:1000, Cell Signaling), rabbit anti-Smad2 (1:1000, Cell Signaling), rabbit anti-Sox9 (1:500, Abcam), mouse anti-Aggrecan (1:500, ThermoFisher), rabbit anti-COMP/Cartilage oligomeric matrix protein (1:500, Abcam), mouse anti-Collagen II (1:500, ThermoFisher), and mouse anti-Actin (1:1000, Novus Bio). Membranes were then incubated with their corresponding secondary HRP-conjugated antibodies (1:1000, ThermoFisher). Protein signals were detected using Radiance Bioluminescent ECL substrate (Azure Biosystems). Densitometry analysis, standardized to total receptor content or actin as a control for protein loading, was performed using ImageJ software. For quantification, experimental triplicate samples were analyzed, and two different experiments were conducted.
Background: A western blot detects proteins with antibodies after separation by electrophoresis.

Series [5] relates to collagen II, COMP, aggrecan and Sox9 in human chondrocytes. The series can be described thus: Western blot of ECM proteins after three days treatment. The format is cell-based. The settings on record: 10 μM, three days in vitro. On the procedure:
as §1, §2

For series [6], the system named is collagen II, aggrecan and F-actin in human chondrocytes. The series can be described thus: Immunocytochemistry staining and fluorescence intensity analysis after three days. The settings on record: three days in vitro. The series is classed as cell-based. The method, then:
For immunocytochemistry (ICC), 12-mm glass coverslips were coated with sterile filtered 0.01 mg/mL poly-D-lysine (Sigma-Aldrich) solution and incubated overnight at 37° C. The coverslips were washed three times with sterile water and air-dried for at least 30 minutes. Cells were seeded on coverslips at a density of approximately 3,000 cells/coverslip and cultured for 24 h. Cells were then treated with PA in solution for 3 days in vitro. Following treatment, cells were fixed in 4% paraformaldehyde for 15 minutes at room temperature.
Fixed samples were permeabilized and blocked in a solution of 0.1% (v/v) Triton X-100 and 1% normal horse serum (Invitrogen) for 2 hours at room temperature. Samples were incubated with primary antibodies overnight at 4° C. The following primary antibodies were used: rabbit anti-Sox9 (1:500, Abcam), mouse anti-Aggrecan (1:500, ThermoFisher), mouse anti-Collagen II (1:500, ThermoFisher), and mouse anti-Nuclei (1:500, Sigma-Aldrich). The next day, samples were incubated with AlexaFluor 488 secondary antibody, AlexaFluor 555 secondary antibody, Phalloidin AlexaFluor 488, and/or Phalloidin AlexaFluor 633 (1:1000, Invitrogen) for 2-3 h at room temperature. For 2D cell culture, samples were then incubated with DAPI (1:1000, Invitrogen) for 10 minutes at room temperature. If not already on a glass coverslip, samples were mounted with Immu-Mount (Thermo Scientific) and imaged on a Nikon A1R Spectral microscope. Image analysis was performed using ImageJ software.

Bridge positions count the residues as written; N and C are the ends. Ends that are not written are not given here. I, II: the chains in the order shown. * marks the point of attachment. Palmitoyl = CCCCCCCCCCCCCCCC(=O)*

For “TGF PA-a: backbone PA-a (SEQ ID NO: 7) conjugated to cyclic TGF-β1 mimetic peptide (SEQ ID NO: 1) by a linker; co-assembled with diluent Backbone PA-a (chain Palmitoyl-AAEEK-OH; peptide CESPLKRQC; disulfide II:1-II:9; not fully specified (some residues); also: co-assembled with diluent backbone PA-a)”, the “relaxation rate for the alkyl tail protons, compared with TGF PA-b assemblies” value in series [1] is recorded as “nearly five times higher”. Besides, the “width of ribbon-like nanostructures” value in series [2] is listed as 50-60 nm. For the same substance, in series [3], the “fluorescence anisotropy (epitope rotational diffusion), compared to TGF PA-b” value is “significantly lower anisotropy values”. Moreover, in series [4] (10 mol % co-assemblies), the p-Smad2 activation result was “upregulated p-Smad2 significantly more than all other PA treatments”. Besides, the p-Smad2 activation entry in series [4] (10 mol % co-assembly) is given as “strong p-Smad2 activation”. Further, in series [4] (with vs without 1D11), the “activation of p-Smad2 with addition of pan-TGF-β-neutralizing antibody 1D11” value is recorded as “effectively neutralized” and the “significance of the neutralizing effect of 1D11 on p-Smad2 activation” value is reported as “statistically significant”. Moreover, in series [5], the “ECM synthesis (collagen II, COMP, aggrecan, Sox9)” value is “upregulated ECM synthesis significantly more than all other PA treatments” and the “levels of collagen II compared with native rhTGF-β1 protein” value is “significantly higher levels of collagen II”. Further, in series [6] (10 μM, ICC), the aggrecan synthesis entry is given as “significantly increased aggrecan synthesis at similar levels” and the “collagen II production compared with native rhTGF-β1” value is given as “significantly more collagen II production than native rhTGF-β1”. Also, the “chondrocyte phenotype (F-actin staining)” value in series [6] is “maintained healthy chondrocyte phenotypes and prevented hypertrophy”.
